In patent publication US7192983B2, “N-protected/N-substituted-beta-amino hydroxy sulfonates” (G.D. Searle & Co., priority 1995, dated 2007):

Assay: Determination of storage stability at ambient temperature (purity by HPLC)
Type: physicochemical
Experimental: 2S-[Bis (phenylmethyl) amino]-1-hydroxy-3-phenylpropyl sulfonic acid, sodium salt (5 grams) was treated with stirring with an aqueous solution of 5 grams of potassium carbonate in 50 mL of water at room temperature. The aqueous solution was extracted once with a 50 mL portion of ethyl acetate. The organic solvent solutions were combined and removed under reduced pressure. The residue was dissolved in the tetrahydrofuran (THF), filtered through a cotton filter plug and the solvent removed under reduced pressure. […] The samples were placed on the column diluted in 90% hexane, 5% isopropanol and 5% tert-butylmethyl ether.
The experiment extended through 61 days with purity determinations made on days 0 (t=0), 3 (t=3), 6 (t=6), 18 (t=18) and 61 (t=61). A sample of the salt was treated with aqueous potassium carbonate and extracted with ethyl acetate on day 0. The ethyl acetate was removed under reduced pressure to provide the aldehyde and this sample was used as a t=0 […] reference standard for the stability determination (“Aldehyde Sample”). The t=0 sample of the aldehyde was then stored at ambient temperature in a capped, brown glass bottle side by side with the stored sample of the salt. The purity of the salt was then measured on days 3 (t=3), 8 (t=8), 15 (t=15) and 21 (t=21).

SMILES: O=C[C@H](Cc1ccccc1)N(Cc1ccccc1)Cc1ccccc1 [Aldehyde Sample, 2S-[bis(phenylmethyl)amino]-3-phenylpropanal]
- % aldehyde remaining (day 8, stored at ambient temperature in capped brown glass bottle): 64%
- % aldehyde remaining (day 15, stored at ambient temperature in capped brown glass bottle): 23%
- % aldehyde remaining (day 18, stored at ambient temperature in capped brown glass bottle): 10%
